Common to all, as to type: biochemical
Assay [1] in a line: Activity against free radicals, Method A (DPPH radical, optical density at 513 nm). The method, then:
(§1) The effectiveness of the test substances against free radicals was tested by various chemical and biochemical methods: Method A A first test was carried out using diphenylpicrylhydrazyl (DPPH°) which is a relatively stable radical that forms a purple-coloured solution. The optical density (DO) at 513 nm was determined. Method B Hydroxyl radicals were released from hydrogen peroxide in the presence of iron (II) ions and EDTA and were used to oxidize desoxyribose. The oxidation product forms a pink-coloured compound with thiobarbituric acid. Its concentration corresponds to the optical density at 532 nm. A test was conducted to determine whether less desoxyribose is oxidized, i.e. whether fewer free radicals are released, in the presence of the test products. […] Method D Xanthine oxidase is an enzyme which is released through oxidative stress and catabolizes the decomposition of the purine bases adenine and guanine into uronic acid and superoxide anions. The superoxide anions dismute into hydrogen peroxide and oxygen either spontaneously or in the presence of Superoxid Dismutase. The quantity of superoxide anion can be determined by NBT reduction via the optical density at 490 nm. A test was conducted to determine whether fewer superoxide anions are generated or more anions are destroyed in the presence of the test substances. The results are set out in Table 1 and represent the EC50 values in % (w/v).
(Loss of DPPH colour is used to gauge radical scavenging.)

The nature of assay [2]: Activity against free radicals, Method B (hydroxyl radicals from hydrogen peroxide with iron (II) ions and EDTA, desoxyribose oxidation). The settings on record: optical density at 532 nm. The method, then: as §1, with “The results are set out in Table 1 and represent the EC50 values in % (w/v).” left out
Assay [3] in a line: Activity against free radicals, Method C (desoxyribose oxidation in the absence of EDTA, forming inactive iron complexes). The settings on record: as Method B in the absence of EDTA. As to the method:
as §1, with “The results are set out in Table 1 and represent the EC50 values in % (w/v).” left out

The target in a further assay is Xanthine oxidase (Homo sapiens, UniProt P47989). The assay is described as follows: Activity against free radicals, Method D (xanthine oxidase, superoxide anion by NBT reduction). The settings on record: optical density at 490 nm. The method, then: as §1, with “substances.” for “substances. The results are set out in Table 1 and represent the EC50 values in % (w/v).”
Sequence of Xanthine oxidase (P47989 whole entry, species assumed): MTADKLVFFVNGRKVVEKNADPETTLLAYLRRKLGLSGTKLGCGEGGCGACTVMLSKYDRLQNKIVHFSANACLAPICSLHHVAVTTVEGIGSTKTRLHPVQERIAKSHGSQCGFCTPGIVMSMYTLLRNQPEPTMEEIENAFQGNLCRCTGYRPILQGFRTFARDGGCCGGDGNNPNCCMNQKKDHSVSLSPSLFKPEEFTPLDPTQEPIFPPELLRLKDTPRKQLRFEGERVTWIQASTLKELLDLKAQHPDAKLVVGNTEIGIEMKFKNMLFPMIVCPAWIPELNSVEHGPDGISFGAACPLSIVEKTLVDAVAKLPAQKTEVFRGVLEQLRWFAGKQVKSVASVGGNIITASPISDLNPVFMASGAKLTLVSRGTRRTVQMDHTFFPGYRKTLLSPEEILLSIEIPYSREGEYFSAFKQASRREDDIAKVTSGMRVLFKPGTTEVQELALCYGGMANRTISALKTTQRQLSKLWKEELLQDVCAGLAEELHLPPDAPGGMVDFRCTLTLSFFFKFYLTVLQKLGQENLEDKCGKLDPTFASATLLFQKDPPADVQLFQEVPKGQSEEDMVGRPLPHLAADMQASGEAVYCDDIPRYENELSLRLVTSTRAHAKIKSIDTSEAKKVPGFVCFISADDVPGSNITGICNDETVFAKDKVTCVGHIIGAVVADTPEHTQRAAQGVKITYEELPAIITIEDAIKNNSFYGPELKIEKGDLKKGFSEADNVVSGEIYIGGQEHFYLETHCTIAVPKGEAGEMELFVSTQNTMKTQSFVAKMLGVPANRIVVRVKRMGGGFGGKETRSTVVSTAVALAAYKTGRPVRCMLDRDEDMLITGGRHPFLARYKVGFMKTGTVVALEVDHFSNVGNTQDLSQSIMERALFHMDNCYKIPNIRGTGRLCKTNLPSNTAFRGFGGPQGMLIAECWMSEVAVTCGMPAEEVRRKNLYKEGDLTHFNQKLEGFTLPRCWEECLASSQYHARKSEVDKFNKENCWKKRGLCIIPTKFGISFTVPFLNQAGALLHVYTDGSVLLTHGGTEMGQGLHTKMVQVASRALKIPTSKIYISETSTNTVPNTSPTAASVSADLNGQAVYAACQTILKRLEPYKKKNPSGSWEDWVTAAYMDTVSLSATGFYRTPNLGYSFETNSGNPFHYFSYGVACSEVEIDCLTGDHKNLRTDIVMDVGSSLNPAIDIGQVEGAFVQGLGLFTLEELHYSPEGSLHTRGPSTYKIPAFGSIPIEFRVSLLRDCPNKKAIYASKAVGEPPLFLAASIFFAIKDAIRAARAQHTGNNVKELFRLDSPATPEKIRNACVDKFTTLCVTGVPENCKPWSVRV
The results are set out in Table 1 and represent the EC50 values in % (w/v).

Take `O=C1O[C@H]([C@@H](O)CO)C(O)=C1O` [Ascorbic acid]: the “EC50, Method A” value in assay [1] is given as 0.0013 % (w/v). Further, the “EC50, Method B” value in assay [2] was 0.26 % (w/v). Besides, in assay [3], the “EC50, Method C” value is 0.9 % (w/v). Besides, at Xanthine oxidase, the “EC50, Method D” value was 0.59 % (w/v).

Turning to Butylhydroxytoluol, the “EC50, Method A” value in assay [1] was 0.0500 % (w/v). On Xanthine oxidase, the “EC50, Method D” value is given as “No effect”.

With Tocopherol, the “EC50, Method A” value in assay [1] is recorded as 0.0067 % (w/v). For the same molecule, on Xanthine oxidase, the “EC50, Method D” value is given as “No effect”.

(Values after patent EP2682005A1, “A dietary supplement composition” (Symrise AG, priority 2012, dated 2014).)
